The values that follow come from ChEMBL document CHEMBL1201862, “PubChem BioAssay data set” (2004).

SMILES strings stand for the structures.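 In this assay, cells in 96-well plates receive the compound at five concentrations for 48 hours. Endpoints are linearly interpolated between the surrounding concentrations. GI50: concentration for 50% inhibition of growth.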 The source made the active and inactive calls. No stated cut-off is given here; in the data, active = GI50 up to about 1.1 µM and inactive = higher.

Test in all cases: NCI tumour cell line growth inhibition, 48 h
In experiment [1] the test system is MDA-MB-435.
In experiment [2] the test system is HT-29.
For experiment [3], the system named is M14.
Experiment [4] has as its system TK-10.
For experiment [5], the system named is OVCAR-8.
The subject of experiment [6] is EKVX.
Experiment [7] has as its system OVCAR-3.
Experiment [8] has as its system KM12.
The subject of experiment [9] is SNB-19.
In experiment [10] the test system is T47D.
In experiment [11] the test system is NCI-H460.
Experiment [12] has as its system SR.
Experiment [13] concerns BT-549.
Experiment [14] has as its system MCF7.
The test system of experiment [15] is UACC-62.
The subject of experiment [16] is Malme-3M.
The test system of experiment [17] is Hs-578T.
In experiment [18] the test system is CCRF-CEM.
The subject of experiment [19] is HL-60.

As for `CC1=CSC(O)(c2ccc(Cl)cc2)c2noc(=O)n21` (stereo not given), the GI50 in [1] is 30.1 µM (inactive); in [2] it was > 100 µM (inactive); in experiment [3], > 100 µM (inactive); in experiment [4], > 100 µM (inactive); in [5] it was 97.7 µM (inactive); in experiment [6] it was > 100 µM (inactive). In addition, the GI50 in [7] was 72.1 µM (inactive); in experiment [8], > 100 µM (inactive); in [9], > 100 µM (inactive); in [10], 54.8 µM (inactive); in [11], 51.2 µM (inactive); in experiment [12], 50.7 µM (inactive). For the same compound, the figures for the GI50 in [13], in experiment [14] and in experiment [15] were > 100 µM (inactive), 66.4 µM (inactive) and 44.9 µM (inactive), respectively.
For the compound `O=C1Nc2ccc(Br)cc2C1=Nc1cccnc1`, the GI50 is 13 µM (inactive) in [1]; 21 µM (inactive) in [2]; 22.3 µM (inactive) in [16]; 15.7 µM (inactive) in [3]; 57.5 µM (inactive) in experiment [4]; 25.3 µM (inactive) in experiment [5]. The GI50 was 24.3 µM (inactive) in [6]; 18.9 µM (inactive) in experiment [7]; 27.4 µM (inactive) in [8]; 41.2 µM (inactive) in experiment [9]; 20.6 µM (inactive) in [10]; > 100 µM (inactive) in experiment [11]. The GI50 in experiment [17] is 19.9 µM (inactive); in experiment [13], 17.1 µM (inactive); in experiment [14], 22.7 µM (inactive); in experiment [15], 17.3 µM (inactive); in experiment [18], 16.2 µM (inactive); in [19] it was 11.8 µM (inactive).
Turning to `CCc1ncc(CO)n1Cc1cccc2ccccc12`, the GI50 in experiment [1] is > 100 µM (inactive); in [2] it was 96.8 µM (inactive); in experiment [16], > 100 µM (inactive); in [3], > 100 µM (inactive); in experiment [4], 99.5 µM (inactive); in experiment [5], > 100 µM (inactive). The GI50 in [6] is > 100 µM (inactive); in experiment [7], > 100 µM (inactive); in [8], 98.2 µM (inactive); in experiment [9], > 100 µM (inactive); in experiment [10], 77.3 µM (inactive); in experiment [11], > 100 µM (inactive). The GI50 in experiment [17], in experiment [13], in experiment [14] and in [15] was > 100 µM (inactive) in each case.
Consider `CN(CCN)[C@H](CSSC[C@@H](c1ccccc1O)N(C)CCN)c1ccccc1O`, for which the GI50 is 18 µM (inactive) in experiment [1]; 9.55 µM (inactive) in experiment [2]; 16.3 µM (inactive) in experiment [16]; 13.5 µM (inactive) in [3]; 13.9 µM (inactive) in experiment [4]; 9.04 µM (inactive) in [5]. Further, the GI50 is 11.5 µM (inactive) in experiment [6]; 8.38 µM (inactive) in [7]; 11.1 µM (inactive) in experiment [8]; 12.1 µM (inactive) in experiment [9]; 26.1 µM (inactive) in experiment [10]; 4.98 µM (inactive) in [11]. The GI50 was 20.4 µM (inactive) in experiment [17]; 2.87 µM (inactive) in experiment [12]; 9.95 µM (inactive) in [13]; 14.9 µM (inactive) in experiment [14]; 10 µM (inactive) in experiment [15]; 1.44 µM (inactive) in experiment [18].
On to `CCOC(=O)C1=C(C)NC(C)=C(C(=O)OCC)C1c1ccc(C)cc1`, for which the GI50 in experiment [1] was 35.4 µM (inactive); in experiment [2], 27.8 µM (inactive); in experiment [3], 37.6 µM (inactive); in experiment [4], 66.8 µM (inactive); in experiment [5], 28.1 µM (inactive); in [6], 42.7 µM (inactive). The GI50 in [7] was 21.1 µM (inactive); in experiment [8] it was 46.7 µM (inactive); in [9] it was 63.1 µM (inactive); in experiment [10], 39.9 µM (inactive); in [11], 22.9 µM (inactive); in experiment [17], 39.2 µM (inactive). Also, the GI50 is 52.8 µM (inactive) in experiment [13], 11.2 µM (inactive) in experiment [14], 39.4 µM (inactive) in experiment [15] and 0.0193 µM (active) in [18].
In the case of `N#Cc1nnn(-c2ccccc2)c1O`, the GI50 in experiment [1], in [2], in [16], in experiment [3], in [4] and in experiment [5] was > 100 µM (inactive) each time. The GI50 in experiment [6], in [7], in experiment [8], in [9], in [10] and in [17] was > 100 µM (inactive) in each case. Further, the GI50 in experiment [13], in [14], in [15] and in [19] was > 100 µM (inactive) each time.
Take `O=c1c2c3ccccc3[nH]c2c2cccc3c2n1CCC3`: the GI50 is 54.6 µM (inactive) in experiment [1]; 29.6 µM (inactive) in experiment [2]; 22 µM (inactive) in experiment [16]; 60.5 µM (inactive) in experiment [3]; 68.9 µM (inactive) in experiment [4]; 50.9 µM (inactive) in experiment [5]. Also, the GI50 was 20.6 µM (inactive) in [6]; 30.6 µM (inactive) in [7]; 33.9 µM (inactive) in experiment [8]; > 100 µM (inactive) in [9]; 61 µM (inactive) in [10]; 34.8 µM (inactive) in experiment [11]. Further, the GI50 is 21.2 µM (inactive) in experiment [17]; 25.9 µM (inactive) in [12]; 29.6 µM (inactive) in experiment [13]; 35.1 µM (inactive) in [14]; 36.5 µM (inactive) in [15]; 30.5 µM (inactive) in experiment [18].
Regarding `Nc1nc(Cl)cc(NCC2(CO)CCC(CCc3ccccc3)C2)n1` (stereo not given), the GI50 in [1] was 14.3 µM (inactive); in experiment [2], 7.94 µM (inactive); in [16] it was 16 µM (inactive); in experiment [3] it was 13.7 µM (inactive); in experiment [4], 18 µM (inactive); in experiment [5], 14.6 µM (inactive). The GI50 in experiment [6] was 0.771 µM (active); in experiment [7], 7.45 µM (inactive); in [8] it was 13.9 µM (inactive); in experiment [9], 15.9 µM (inactive); in [10], 0.877 µM (active); in [11] it was 12 µM (inactive). Besides, the GI50 in experiment [17] was 21.3 µM (inactive); in [13], 14 µM (inactive); in experiment [14], 11.7 µM (inactive); in [15], 13.2 µM (inactive); in experiment [19], 6.21 µM (inactive).
In the case of `Cc1cccc(/C=N/NC(=S)Nc2ccccc2)n1`, the GI50 in [1] is 7.6 µM (inactive); in experiment [2], 3.17 µM (inactive); in experiment [16] it was 5.04 µM (inactive); in experiment [3], 2.49 µM (inactive); in experiment [4], 2.43 µM (inactive); in experiment [5], 2.43 µM (inactive). The GI50 in [6] is 5.97 µM (inactive); in experiment [7], 1.97 µM (inactive); in experiment [8], 4.72 µM (inactive); in experiment [9], 11.9 µM (inactive); in experiment [10], 2.84 µM (inactive); in [11], 1.57 µM (inactive). Moreover, the GI50 in [17] is 20.1 µM (inactive); in experiment [12], 16.6 µM (inactive); in [13], 7.53 µM (inactive); in experiment [14], 2.89 µM (inactive); in experiment [15] it was 3.68 µM (inactive).
In the case of `O=C(/C=C\Nc1ccccc1O)C(Cl)(Cl)Cl`, the GI50 in experiment [1] is 20.6 µM (inactive); in experiment [2], 36.1 µM (inactive); in experiment [16], 82 µM (inactive); in [3] it was 38.9 µM (inactive); in [4] it was 78.5 µM (inactive); in [5], 35.9 µM (inactive). Moreover, the GI50 was 45.7 µM (inactive) in [6]; 17.8 µM (inactive) in experiment [7]; 33.7 µM (inactive) in experiment [8]; 76.2 µM (inactive) in experiment [9]; 28 µM (inactive) in [10]; 53.7 µM (inactive) in experiment [11]. For the same compound, the GI50 was 69 µM (inactive) in experiment [17]; 52.2 µM (inactive) in experiment [13]; 20.8 µM (inactive) in experiment [14]; < 0.01 µM (active) in [15]; 28.1 µM (inactive) in [18]; 21.8 µM (inactive) in experiment [19].
Take `Cc1cc2nc(N3C(=O)/C(=C/c4ccc(Oc5ccccc5)cc4)N=C3c3ccccc3)sc2cc1C`: the GI50 in experiment [1] is 19.5 µM (inactive); in experiment [2], 31.6 µM (inactive); in experiment [16] it was 70.6 µM (inactive); in experiment [3], 51.8 µM (inactive); in experiment [4] it was 59.4 µM (inactive); in [5] it was 71.8 µM (inactive). Besides, the GI50 in [6] was 42.6 µM (inactive); in [7] it was 59.3 µM (inactive); in experiment [8], 26.1 µM (inactive); in experiment [9], > 100 µM (inactive); in experiment [10] it was 42.3 µM (inactive); in experiment [11], 32.1 µM (inactive). Besides, the GI50 in [17] was 52.2 µM (inactive); in experiment [13], 43 µM (inactive); in [14], 24.2 µM (inactive); in experiment [15], 35.4 µM (inactive); in [18] it was 26.7 µM (inactive); in experiment [19], 23.6 µM (inactive).
Take `COC(=O)c1cc(C)ccc1C1CN=NC12Cc1ccc(C)cc1C2=O` (stereo not given): the GI50 in experiment [1] was 32.2 µM (inactive); in experiment [2], 41.5 µM (inactive); in experiment [16] it was 25.1 µM (inactive); in experiment [3], 38.3 µM (inactive); in experiment [4] it was 61 µM (inactive); in experiment [5] it was 56.4 µM (inactive). Moreover, the GI50 in [6] was 46.5 µM (inactive); in experiment [7], 36.3 µM (inactive); in experiment [8], 29 µM (inactive); in [9], 55.2 µM (inactive); in experiment [10], 31.8 µM (inactive); in experiment [11] it was 34.1 µM (inactive). For the same compound, the GI50 was 45.6 µM (inactive) in experiment [17]; 30.1 µM (inactive) in experiment [13]; 29.9 µM (inactive) in [14]; 54.7 µM (inactive) in [15]; 32.7 µM (inactive) in [18]; 13 µM (inactive) in [19].
